Columns and labels:
[1] = test system: Escherichia coli (ATCC 10536); experiment: Agar diffusion method (inhibition zone); format: cell-based; design: key to Inhibition zone after 4 days of incubation (symbol): — (*): After 4 days of incubation, the bacteria grown up in the inhibition zone initially formed; settings: E. coli; for Average diameters of inhibition zones, after 24 hours of incubation: 100 μl in 6 mm well, 37° C.; for Inhibition zone after 4 days of incubation (symbol): free oils
Method: (§1) This assay was conducted with the limonene and vanillin microcapsules suspensions after applying the washing procedure described previously. Moreover, the free active agents were also tested separately (not incorporated in microcapsules). Staphylococcus aureus (ATCC 19213) and Escherichia coli (ATCC 10536) were used as representatives for Gram positive and Gram negative bacteria, respectively. The bacterial inoculums were prepared, under aseptic conditions, by transferring 4 isolated colonies of each type to individual test tubes containing nutrient broth and then incubated at 37° C. for 24 hours. The inoculums were then diluted by sterilized Ringer solution to a concentration of 0.5 McFarland turbidity (concentration of 1.5-3.0×10^8 CFU/ml). The concentration of the bacteria dilutions, also ascertained through UV spectrophotometry at 625 nm, was 0.0938 for the S. aureus, and 0.0940 for the E. coli. The bacterial solutions were then inoculated on the surface of Mueller Hinton Agar plates, using sterilized cotton swabs, and thereafter allowed to dry. Then, a well of 6 mm diameter was made in the center of each inoculated plate; the plug was removed, and filled with 100 μl of the microcapsules suspension. The limonene oil was diluted in dimethyl sulfoxide (DMSO) (7:3 ratio), and the vanillin dissolved in corn oil (0.03 g vanillin in 1 g of oil). The plates were incubated at 37° C. for 24 h. After this time period, the diameter of the inhibition zone was measured and incubation maintained for more 4 days in order to evaluate further changes in the inhibition zone. The clear zone formed, after incubation, around each hole (inhibition halo), indicates antimicrobial activity and its diameter is a measure of the inhibitory effect. All of the tests were done in duplicates.

[2] = test system: Staphylococcus aureus (ATCC 19213); experiment: Agar diffusion method (inhibition zone); format: cell-based; design: key to Inhibition zone after 4 days of incubation (symbol): — (*): After 4 days of incubation, the bacteria grown up in the inhibition zone initially formed; settings: S. aureus; for Average diameters of inhibition zones, after 24 hours of incubation: 100 μl in 6 mm well, 37° C.; for Inhibition zone after 4 days of incubation (symbol): free oils
Method: as §1

With `C=C(C)[C@H]1CC=C(C)CC1` [Limonene in DMSO, Limonene] the “Average diameters of inhibition zones, after 24 hours of incubation” value (“Average diameters of inhibition zones” for short) [1] was 3.30 ± 0.31 cm, the “Inhibition zone after 4 days of incubation (symbol)” value (shortened to “Inhibition zone after 4 days”) [1] was “— (*)” and the “Average diameters of inhibition zones” value [2] was 3.30 ± 0.18 cm. The “Inhibition zone after 4 days” value [2] was “— (*)”.
With `COc1cc(C=O)ccc1O` [Vanillin in corn oil, Vanillin] the “Average diameters of inhibition zones” value [1] was 0.95 ± 0.32 cm, the “Inhibition zone after 4 days” value [1] was “— (*)” and the “Average diameters of inhibition zones” value [2] was 1.00 ± 0.20 cm. The “Inhibition zone after 4 days” value [2] was “— (*)”.
